Earlier results, collected in US20220142893A1, “THE PROCESS OF DYEING KERATINOUS MATERIAL COMPRISING THE USE OF AN ORGANOSILICON COMPOUND, TWO COLOR-IMPARTING COMPOUNDS AND A FILM-FORMING POLYMER” (Henkel AG & Co. KGaA, priority 2019, published 2022).

Details: 25° C.

| SMILES | solubility in water | solubility in water (in words) |
| --- | --- | --- |
| Nc1cc(S(=O)(=O)[O-])cc2cc(S(=O)(=O)[O-])c(N=Nc3ccccc3)c(O)c12.[Na+].[Na+] [Acid Red 33, disodium salt of 5-amino-4-hydroxy-3-(phenylazo)-naphthalene-2,7-disulphonate] | 2500 µg/mL |  |
| O=C([O-])c1c(Cl)c(Cl)c(Cl)c(Cl)c1-c1c2c(Br)cc(=O)c(Br)c-2oc2c(Br)c(O)cc(Br)c12.O=C([O-])c1c(Cl)c(Cl)c(Cl)c(Cl)c1-c1c2c(Br)cc(=O)c(Br)c-2oc2c(Br)c(O)cc(Br)c12.[Na+].[Na+] [Acid Red 92, disodium salt of 3,4,5,6-tetrachloro-2-(1,4,5,8-tetrabromo-6-hydroxy-3-oxoxanthen-9-yl)benzoic acid] | greater than 10 g/L |  |
| O=C([O-])C1=NN(c2ccc(S(=O)(=O)[O-])cc2)C(=O)C1N=Nc1ccc(S(=O)(=O)[O-])cc1.[Na+].[Na+].[Na+] (stereo not shown) [Acid Yellow 23, trisodium salt of 4,5-dihydro-5-oxo-1-(4-sulfophenyl)-4-((4-sulfophenyl)azo)-1H-pyrazole-3-carboxylic acid] |  | highly soluble |
| O=S(=O)([O-])c1ccc(N=Nc2c(O)ccc3ccccc23)cc1.[Na+] [Acid Orange 7, sodium salt of 4-[(2-hydroxy-1-naphthyl)azo]benzene sulphonate] | more than 7 g/L |  |
